Reference: patent publication US20060257400A1, “COMBINATION THERAPY” (Bristol-Myers Squibb Company, priority 2005, published 2006)

System: Human L2987 lung carcinomas
Experiment: Antitumor testing, s.c. L2987 xenografts in nude mice
Assay type: in vivo
Conditions: athymic nude mice, s.c. L2987 tumors established at 100-200 mm^3; Compound I 100 mg/Kg daily; Erbitux 1 mg per mouse every three days, 5 doses; combination given essentially simultaneously
Experimental: Animals. […] They were fed food and water ad libitum. All studies involving these animals were conducted in accordance with NIH (Bethesda, Md.) and Bristol Myers-Squibb animal care and use guidelines.
Tumors. […] All efficacy testing involved tumors implanted s.c. in nude mice.

With `Cc1cc2c(F)c(Oc3ncnn4cc(OC[C@@H](C)OC(=O)[C@H](C)N)c(C)c34)ccc2[nH]1` [Compound I] the “delay of tumor growth to target tumor size of 500 mm^3 compared to vehicle treated control group” value was “ten”.
